In patent publication US8273775B2, “Non-steroidal brassinosteroid mimetic” (priority 2006, dated 2012):

How the values were obtained:
[1] = test system: DR5, CYCB1;1 and CDKB1;1 promoters fused to GUS; test: GUS assay of promoter-reporter markers in first leaf; assay type: in vivo, Arabidopsis; conditions: for CDKB1;1-GUS expression: 30 μM ABRASIN or 1 μM BL, days 8 and 10
Protocol: FIG. 17: Investigation of differences in the rescue strategy of bri1-116 and cpd mutants treated with ABRASIN (30 μM) or BL (1 μM). The activation of markers for auxin response (DR5) and cell division (CYCB1; 1 and CDKB1; 1) was followed by localization of their promoters fused to β-glucuronidase (GUS) reporter gene. […] Samples for GUS assay were taken on day 6th (i.e. 1 day treatment), 8th (i.e. 3 days treatment), 10th (i.e. 5 days treatment). (A.) The effect of ABRASIN on the first leaf of bri1-116 and Col-0 plants—activity localization of DR5, CYCB1; 1 and CDKB1; 1 promoters fused to GUS reporter gene (B.) The effect of ABRASIN on the first leaf of cpd and Col-0 plants—activity localization of CYCB1; 1 and CDKB1; 1 promoters fused to GUS reporter gene. BL: brassinolide; BIK: abrasin.
(§1) Col-0, the null BR signaling bri1-116 (Friedrichsen et al., 2000) and BR biosynthetic cpd (Szekeres et al., 1996) mutants were subjected to phenotype rescue analysis by treatments with BL and ABRASIN. As a negative control, dimethylsulfoxide (DMSO) was used. Plants were germinated in vitro for 5 days on ½ MS containing DMSO medium and from day 6th to day 11th they were transferred on medium supplemented with BL (10 nM, 100 nM, 1000 nM), ABRASIN (5 μM, 10 μM, 30 μM) or DMSO. Cotyledons and leaves were collected for flowcytometric analysis at the 11th day (i.e. 6 days of treatments). Samples for β-glucuronidase (GUS) assay were taken on day 6th (i.e. 1 day treatments), 8th (i.e. 3 days treatments), 10th (i.e. 5 days treatments). Rescue of soil-grown mutants at different growth stages was checked by watering bri1-116 and cpd mutants with either BL or 2 ml 300 μM ABRASIN per day.
GUS staining was carried out by the method described by Jefferson et al. (1987). Images of GUS stained plants were taken with binocular microscope (MZ16, Leica) and Nikon camera.

bri1-116 and cpd mutants = test: Flowcytometric analysis of DNA content of cotyledons and leaves; assay type: in vivo, Arabidopsis; conditions: 6 days of treatments
Protocol: FIG. 16: Rescue of bri1-116 and cpd mutants grown on different concentrations of ABRASIN and BL. The plants were germinated on MS+DMSO medium till day 5 and afterwards transferred on MS supplemented with the respective concentration of ABRASIN and BL for 6 more days. Flowcytometric analysis of cotyledons and leaves was performed at the last day of treatments. (A.) Rescue of bri1-116 mutants by ABRASIN. Increasing the ABRASIN concentration promotes cell division activation. (B.) Rescue of cpd mutants by ABRASIN. Increasing the ABRASIN concentration promotes cell division activation. (C.) Rescue of cpd mutants by BL. Both cell division and endoreduplication take place in the BL rescue strategy. BL: brassinolide; BIK: abrasin.
as §1
Samples for flow cytometric analysis were collected and analyzed as described earlier (De Veylder et al., 2001)

O=C(O)CCC(=O)Nc1ccc(Br)cn1 [abrasin, 4-[(5-bromo-2-pyridinyl)amino]-4-oxobutanoic acid]
CYCB1;1 expression (cell division marker) ([1]; 30 μM ABRASIN): increased the CYCB1; 1 expression
CDKB1;1-GUS expression [1]: activated CDKB1; 1-GUS predominately in the leaf vasculature
DR5 activity in the leaves ([1]; 1 day of treatment): did not significantly increases the DR5 activity in the leaves
DR5 activity / auxin levels in the leaves ([1]; longer treatment): the auxin levels in both bri1-116 and wild type leaves were increased after longer treatment
DNA content distribution of leaves (bri1-116 and cpd mutants): significantly increased the 2C and 4C content and completely suppressed the 16C content
DNA content of cotyledons (bri1-116 and cpd mutants): the values for cotyledons did not differ form the untreated controls

CC(C)[C@H](C)[C@@H](O)[C@H](O)[C@@H](C)[C@H]1CC[C@H]2[C@@H]3COC(=O)[C@H]4C[C@H](O)[C@H](O)C[C@]4(C)[C@H]3CC[C@]12C [BL, brassinolide, reference compound]
CDKB1;1-GUS expression [1]: induced only stomata specific expression
DNA content distribution of leaves (bri1-116 and cpd mutants): did not significantly changes the DNA content distribution
